Test results: patent publication US10301295B2, “Herbicidal compounds” (Syngenta Participations AG, priority 2014, dated 2019)
Where two headings read alike, the source gives them in different places.

Legend:
Type in all cases: in vivo
wheat = assay: Post-emergence herbicidal activity against cereal crops (wheat) +/- safener, crop selectivity; settings: 100%=total damage to plant, 0%=no damage; for Post-emergence herbicidal activity against wheat (percentage phytotoxicity), +CQC: 250 g/ha, plus safener cloquintocet-mexyl (CQC) applied at 50 g/ha; for percent phytotoxicity (crop damage) to wheat at 250 g/ha: Triticum aestivum, 360 h, without safener, read-out: Post-emergence herbicidal activity against wheat (percentage phytotoxicity), Wheat - CQC
Experimental: (§1) Seeds of a variety of monocotyledonous and dicotyledonous test plants are sown in standard soil in pots. The plants are cultivated for one day (for pre-emergence) or for about 12 days (for post-emergence) under controlled conditions in a glasshouse (warm climate species at 24/18° C., cool climate species at 20/16° C., both at day/night; 16 hours light; 65% humidity). The test plants are then grown on, in a glasshouse (greenhouse) under controlled conditions (warm climate species at 24/18° C., cool climate species at 20/16° C., both at day/night; 16 hours light; 65% humidity) and are watered twice daily. 15 days after application of the test herbicide (15DAA) (for post-emergence), and 20 days after application of the test herbicide (20DAA) (for pre-emergence), the test plants are evaluated visually, and an assessed percentage phytotoxicity score is given for each herbicidal application on each plant species (with 100%=total damage to plant; 0%=no damage to plant).

[1] = system: Echinochloa crus-galli (ECHCG); assay: Glasshouse assay for herbicidal activity, pre-/post-emergence (percentage phytotoxicity); settings: Echinochloa crus-galli, Rate 250 g/ha, 100%=total damage, 0%=no damage
Experimental: as §1, with “plant). The plant species tested are as follows: Alopecurus myosuroides (ALOMY), Avena fatua (AVEFA), Lolium perenne (LOLPE), Echinochloa crus-galli (ECHCG).” for “plant).”

Lolium perenne (LOLPE) = assay: as above; settings: Rate 250 g/ha, 100%=total damage, 0%=no damage; for pest or weed control at 250 g/ha: Lolium perenne
Experimental: as §1, with “plant). The plant species tested are as follows: Alopecurus myosuroides (ALOMY), Avena fatua (AVEFA), Lolium perenne (LOLPE), Echinochloa crus-galli (ECHCG).” for “plant).”

Avena fatua (AVEFA) = assay: as above; settings: Rate 250 g/ha, 100%=total damage, 0%=no damage; for pest or weed control at 250 g/ha: Avena fatua
Experimental: as §1, with “plant). The plant species tested are as follows: Alopecurus myosuroides (ALOMY), Avena fatua (AVEFA), Lolium perenne (LOLPE), Echinochloa crus-galli (ECHCG).” for “plant).”

[2] = system: Alopecurus myosuroides (ALOMY); assay: as above; settings: Rate 250 g/ha, 100%=total damage, 0%=no damage; for pest or weed control at 250 g/ha: Alopecurus myosuroides
Experimental: as §1, with “plant). The plant species tested are as follows: Alopecurus myosuroides (ALOMY), Avena fatua (AVEFA), Lolium perenne (LOLPE), Echinochloa crus-galli (ECHCG).” for “plant).”

[3] = post-emergence, 360 h, post-emergence, visual assessment 15 DAA, read-out: Post-emergence herbicidal activity (percentage phytotoxicity), ECHCG POST
[4] = pre-emergence, 480 h, pre-emergence, visual assessment 20 DAA, read-out: Pre-emergence herbicidal activity (percentage phytotoxicity), ECHCG PRE
[5] = post-emergence, 360 h, post-emergence, visual assessment 15 DAA, read-out: Post-emergence herbicidal activity (percentage phytotoxicity), LOLPE POST
[6] = pre-emergence, 480 h, pre-emergence, visual assessment 20 DAA, read-out: Pre-emergence herbicidal activity (percentage phytotoxicity), LOLPE PRE
[7] = post-emergence, 360 h, post-emergence, visual assessment 15 DAA, read-out: Post-emergence herbicidal activity (percentage phytotoxicity), AVEFA POST
[8] = pre-emergence, 480 h, pre-emergence, visual assessment 20 DAA, read-out: Pre-emergence herbicidal activity (percentage phytotoxicity), AVEFA PRE
[9] = 360 h, post-emergence, visual assessment 15 DAA, read-out: Post-emergence herbicidal activity (percentage phytotoxicity), ALOMY POST
[10] = 480 h, pre-emergence, visual assessment 20 DAA, read-out: Pre-emergence herbicidal activity (percentage phytotoxicity), ALOMY PRE
[11] = post-emergence, visual assessment 15 DAA
[12] = pre-emergence, visual assessment 20 DAA

Row | SMILES | Post-emergence herbicidal activity against wheat (percentage phytotoxicity), +CQC (wheat) [%] | percent phytotoxicity (crop damage) to wheat at 250 g/ha (wheat) [%] | pest or weed control at 250 g/ha [1, 3] [%] | pest or weed control at 250 g/ha [1, 4] [%] | pest or weed control at 250 g/ha (Lolium perenne (LOLPE); [5]) [%] | pest or weed control at 250 g/ha (Lolium perenne (LOLPE); [6]) [%] | pest or weed control at 250 g/ha (Avena fatua (AVEFA); [7]) [%] | pest or weed control at 250 g/ha (Avena fatua (AVEFA); [8]) [%] | pest or weed control at 250 g/ha [2, 9] [%] | pest or weed control at 250 g/ha [2, 10] [%] | Post-emergence herbicidal activity (percentage phytotoxicity), LOLPE POST (Lolium perenne (LOLPE); [11]) [%] | Pre-emergence herbicidal activity (percentage phytotoxicity), LOLPE PRE (Lolium perenne (LOLPE); [12]) [%] | Pre-emergence herbicidal activity (percentage phytotoxicity), AVEFA PRE (Avena fatua (AVEFA); [12]) [%] | Post-emergence herbicidal activity (percentage phytotoxicity), ALOMY POST [2, 11] [%]
1 | Cc1cc(C)c(C2C(=O)CC(CCNC(=O)NC(=O)c3ccc(Cl)cc3)C2=O)c(C)c1 (stereo not drawn) [Compound A51] | 80 | 80 | 90 | 90 | 90 | 60 | 80 | 30 | 90 | 70 |  |  |  | 
2 | Cc1cc(-n2cc(Cl)cn2)cc(C)c1C1C(=O)CC(CCNC(=O)Nc2ccccn2)C1=O.Cl (stereo not drawn) [Compound A13] | 40 | 70 | 100 | 90 | 70 | 50 | 100 | 40 | 90 | 70 |  |  |  | 
3 | Cc1cc(C)c(C2C(=O)CC(CCNC(=O)NC(=O)c3ccc(F)cc3C(F)(F)F)C2=O)c(C)c1 (stereo not drawn) [Compound A69] | 80 | 90 | 70 | 70 | 100 | 80 | 90 | 80 | 100 | 80 |  |  |  | 
4 | CCS(=O)(=O)NCCC1CC(=O)C(c2c(C)cc(C)cc2C)C1=O (stereo not drawn) [Compound A83] | 10 | 80 | 70 | 70 | 70 | 90 | 80 | 80 | 80 | 90 |  |  |  | 
5 | Cc1cc(C)c(C2C(=O)CC(CCNC(=O)NC(=O)c3cc(C(F)(F)F)ccc3Cl)C2=O)c(C)c1 (stereo not drawn) [Compound A62] | 70 | 80 | 80 | 80 | 80 | 40 | 80 | 30 | 90 | 70 |  |  |  | 
6 | Cc1cc(-c2ncccc2F)cc(C)c1C1C(=O)CC(CCNC(=O)Nc2ccccn2)C1=O.Cl (stereo not drawn) [Compound A24] | 70 | 80 | 100 | 90 | 90 | 80 | 100 | 70 | 60 | 10 |  |  |  | 
7 | Cc1cc(C)c(C2C(=O)CC(CCNS(=O)(=O)c3ccc(Cl)cc3Cl)C2=O)c(C)c1 (stereo not drawn) [Compound A84] | 0 | 0 | 50 | 30 | 70 | 50 | 80 | 10 | 30 | 50 |  |  |  | 
8 | Cc1cc(-n2cc(Cl)cn2)cc(C)c1C1C(=O)CC(CCNS(=O)(=O)c2ccc(Cl)cc2)C1=O (stereo not drawn) [Compound A37] | 10 | 20 | 30 | 0 | 0 | 0 | 0 | 0 | 0 | 0 |  |  |  | 
9 | Cc1cc(C)c(C2C(=O)CC(CCNS(=O)(=O)c3ccc(C(F)(F)F)cc3)C2=O)c(C)c1 (stereo not drawn) [Compound A74] | 0 | 10 | 60 | 70 | 60 | 70 |  | 90 | 50 | 70 |  |  |  | 
10 | Cc1cc(C)c(C2C(=O)CC(CCNC(=O)NC(=O)c3c(F)cccc3F)C2=O)c(C)c1 (stereo not drawn) [Compound A48] | 50 | 60 | 100 | 90 | 100 | 100 | 100 | 90 | 90 | 100 |  |  |  | 
11 | Cc1cc(C)c(C2C(=O)CC(CCNC(=O)NC(=O)c3ccccc3C(F)(F)F)C2=O)c(C)c1 (stereo not drawn) [Compound A60] | 70 | 80 | 80 | 70 | 90 | 80 | 100 | 80 | 100 | 70 |  |  |  | 
12 | Cc1cc(C)c(C2C(=O)CC(CCNS(=O)(=O)c3ccccc3C)C2=O)c(C)c1 (stereo not drawn) [Compound A87] | 0 | 20 | 0 | 30 | 0 | 70 | 50 | 0 | 0 | 0 |  |  |  | 
13 | Cc1cc(-n2cc(Cl)cn2)cc(C)c1C1C(=O)CC(CCNC(=O)Nc2ccncn2)C1=O.Cl (stereo not drawn) [Compound A33] | 10 | 40 | 80 | 70 | 30 | 0 | 40 | 40 | 40 | 60 |  |  |  | 
14 | Cc1cc(C)c(C2C(=O)CC(CCN(C)C(=O)Nc3ccccn3)C2=O)c(C)c1 (stereo not drawn) [Compound A17] | 10 | 50 |  |  |  |  |  |  |  |  | 40 | 30 | 0 | 70
